Assay results reported in patent publication US7745572B2, “Peptides effective in the treatment of tumors and other conditions requiring the removal or destruction of cells” (Qualcomm Incorporated, priority 2001, dated 2010).

Tested on: rat prostate
Assay: Intraprostatic infusion in rats, prostate volume and histology at 72 hours
Format: in vivo, Sprague-Dawley rats
Settings: 1 mg/mL in PBS pH 7.4 (1.0 mg/kg)
Procedure: Male Sprague-Dawley rats (300 gram weight range) were anesthetized with ether and given NTP[122] peptide #1 by intraprostatic infusion after open surgical visualization of the prostate. The injections consisted of 300 μl of NTP[122] peptide #1, 1 mg/mL in PBS pH 7.4. (1.0 mg/kg) (n=8), control injections of PBS alone (n=6), and controls with no injection (n=2). Rats were painlessly sacrificed after 72 hours. Prostate glands were dissected, fixed in 10%, buffered formalin for 24 hours, embedded in paraffin, sectioned, and stained with H & E. For each animal the entire prostate gland was embedded and sectioned. All stained sections were examined histologically and measured. For each prostate at least 4 histological sections were examined, and for each histological section two cross-sectional diameters (D) at 90° from each other were measured (total of ≧8 measurements per prostate). […]
Male Sprague-Dawley rats (300 gram weight range) were anesthetized with ether and given NTP[112] peptide #1 by intraprostatic infusion after open surgical visualization of the prostate. […] All stained sections were examined histologically and measured. For each prostate at least 4 histological sections were examined, and for each histological section two cross-sectional diameters (D) at 90° from each other were measured (total of ≧8 measurements per prostate). […]

Row | Sequence | prostate histology (H & E)
1 | IDQQVLSRIKLEIKRCL (listed as Homo sapiens) [NTP[122] peptide #1] | extensive loss of glandular epithelium, flattening and atrophy
2 | MAQSRLTATSASRVQ (listed as Homo sapiens) [NTP[112] peptide #1] | significant cell loss and atrophy
